The subject of one assay is muscle cells. The experiment in a line: Protein synthesis (via phosphorylation of S6K1) in muscle cells. In kind it is cell-based. The settings on record: for Protein Synthesis (percentage increase in 56K phosphorylation in muscle cells): significant when greater than 120%. How it is done: The cells are counted and seeded at a density of […] cells per well in a 24-well plate in a DMEM medium containing glucose at 4.5 g/L and supplemented with fetal calf serum (10%) and antibiotics (penicillin and streptomycin). […] The cells are then placed in a medium without glucose or leucine (Krebs medium) for 1 hour at 37° C., and then incubated for 2 hours and 30 minutes in the presence of the test products or reference, (IGF-1, 100 ng/ml) in serum-free DMEM medium containing radiolabeled leucine 2.5 μCi/mL. At the end of the incubation, the supernatants are removed and the cells are lysed in a 0.1N NaOH solution for 30 min. The radioactivity is measured in the cell fraction and the total protein amount is determined by Lowry assay. Each condition is evaluated at a minimum of n=6; IGF-1, 100 ng/mL is our control to stimulate protein synthesis. The results are expressed in cpm/μg of proteins after 2.5 hours of incubation or as a percentage with respect to the control condition.
For the effects on protein synthesis, the results are expressed as a percentage increase in 56K phosphorylation in muscle cells. This percentage is considered significant when it is greater than 120%, the observed average value of IGF-1 at the concentration of 100 ng/mL in this test, considered as reference.

The subject of assay [1] is myostatin gene expression. The assay can be described thus: Measurement of myostatin expression in C2Cl2 (qPCR). In kind it is cell-based, Mouse. As to conditions: for inhibition of the expression of myostatin: C2Cl2 cells, Table 1, 0.5 μm; for percentage of myostatin gene expression in cells in contact with the molecules related to the expression in the control cells: concentration of the compound 0.5 μm, 6 h, active if less than or close to 70%. How it is done:
C2Cl2 myoblastic cells (ATCC CRL-1772) are seeded in 24-well plates at the density of 30,000 cells per well and cultured in DMEM (Dulbecco's Modified Eagle Medium) medium containing glucose at 4.5 g/L and supplemented with fetal calf serum (10%) and antibiotics (penicillin and streptomycin). […] The cells are then placed in a glucose-depleted medium (DMEM containing 1 g/L of glucose) and devoid of serum in the presence of the test molecules or references (IGF-1 at a concentration of 100 ng/ml) for 6 h. At the end of the experiment, messenger RNAs (mRNAs) are extracted using standard phenol and chloroform methodology. Briefly, the cells are lysed in a solution of trizol (Sigma T9424) containing a strong acid and phenol. The mRNAs are separated from the proteins by the addition of chloroform followed by centrifugation. They are then precipitated in isopropanol and then suspended at the concentration of 1 μg/μL in ultra-pure water free of RNA and DNA. 1 μg of mRNA is then converted by retro-transcription into complementary DNA by the AMV enzyme in the presence a primer and a mixture of nucleotides according to the protocol given by the supplier (Applied Biosystems 4368814). […] QPCRs are performed on a 79001-IT Fast Real-Time PCR detection system (Applied Biosystems). The programming conditions are standard and consist of 1 cycle at 95° C. for 15 min, followed by 40 cycles at 95° C. for 15 sec and 60° C. for 1 min and finalized with a melt curve step at 60° C. and 95° C. The analyzed samples all contain 100 ng of cDNA, a qPCR buffer including the enzyme, the mixture of oligonucleotides and the intercalating SYBR green, and the pair of specific primers of the gene being studied, strategically chosen between two exon sequences and at a final concentration of 200 nM. Fluorescent probes bind to the double-stranded. DNA and fluoresce only once attached to the DNA. A fluorescence threshold is established by the program of the machine. When the amount of DNA allows the fluorescent probe to exceed this threshold, a PCR cycle number called “Ct” is obtained for “cycle threshold” or cycle threshold. It is this value that is the basis of the calculations to quantify the DNA in a relative fashion. A ratio R is set between the amount of the starting DNA in a sample and that of a control, which has not been treated (i.e., R=2^−(Ct Sample−Ct Control)) and this measurement will be compared to that of a household gene known to be unmodulated by the treatment (or R=2^−NRCt).
The primers used are recorded in the following table: […]
For the effects on myostatin expression, the results are expressed as a percentage of myostatin gene expression in cells in contact with the molecules related to the expression in the control cells. The product is supposed to be active if this ratio is less than or close to 70%, the average, value of IGF-1 found at the concentration of 100 ng/mL in this test, considered as reference.

The test system of the next assay is C2Cl2 cells. The experiment in a line: Evaluation of muscle fiber diameter. Format: cell-based. The settings on record: vs vehicle control. The method, then: The C2Cl2 myoblastic cells (ATCC CRL-1772) were seeded into glycerol-treated 8-well plates at a density of 10,000 cells per well and cultured in a DMEM medium containing glucose at 4.5 g/L and supplemented with fetal calf serum (10%) and antibiotics (penicillin and streptomycin).
The cells are then placed in a glucose-depleted medium (DMEM containing 1 g/L of glucose) and devoid of serum in the presence of the test molecules or references (IGF-1 at the concentration of 10 ng/mL or dexamethasone 10 nM) for 3 days. At the end of the culture, the cells are rinsed and fixed with 2.5% glutaraldehyde/0.1% Triton solution for 1 hour at room temperature. The cell layer is covered with DAPI (fluorescent labeling of the cell nucleus). After storage in the dark for 16 hours in the cold, the slides are observed under a fluorescence microscope (Carl Zeiss, AxioVert 200) and the images are analyzed using the Axiovision 4.1 software to measure the diameter of the fibers.
C2Cl2 cells are differentiated and treated with compound 1 for the last three days of differentiation.

As to `CCON=C(CCC(=O)O)c1ccc(Cl)c(Cl)c1` [Compound 1, 4-(3,4-dichlorophenyl)-4-ethoxyimino-butanoic acid], the “Protein Synthesis (percentage increase in 56K phosphorylation in muscle cells)” value in the assay on muscle cells (0.5 μm) is on record as 134%; in the assay with muscle cells (5 μm), 142%; in the assay on muscle cells (50 μm) it was 151%. For the same compound, in the assay on muscle cells (concentration of 0.5 μM), the “protein synthesis in muscle cells” value is reported as “significantly increases”. In addition, in assay [1], the “inhibition of the expression of myostatin” value was “significantly inhibit”. For the same compound, in assay [1], the “percentage of myostatin gene expression in cells in contact with the molecules related to the expression in the control cells” value is listed as 71%. Moreover, the “diameter of the myotubes (muscle fiber diameter, FIG. 1)” value in the assay with C2Cl2 cells (compound 1 at 10 μM, last three days of differentiation) was “significantly increased”.
`CCON=C(CCC(=O)OC(C)C)c1ccc(Cl)c(Cl)c1` [Compound 3, Isopropyl acid 4-(3,4-dichlorophenyl)-4-ethoxyimino-butanoate]: in assay [1], the “inhibition of the expression of myostatin” value is “significantly inhibit” and the “percentage of myostatin gene expression in cells in contact with the molecules related to the expression in the control cells” value was found to be 41%.
Regarding “IGF-1: reference used to inhibit myostatin expression, stimulate protein synthesis and increase myotube diameter [reference compound]”, the “Protein synthesis, observed average value of reference” value with muscle cells (IGF-1 at 100 ng/mL) is on record as 120%. Also, the “percentage of myostatin gene expression related to control cells, average value of reference” value in assay [1] (IGF-1 at 100 ng/mL) came out at 70%. In addition, the “diameter of myotubes (muscle fiber diameter, FIG. 1)” value with C2Cl2 cells (IGF1 at 10 ng/ml, 3 days) is given as “significantly increases”.

Source of the values: US10350184B2, “Derivatives used in the treatment of muscle atrophy” (METABRAIN RESEARCH, priority 2015, dated 2019).
